{"source": "patent US20220218852A1", "about": "“NOVEL RADIOLABELLED CXCR4-TARGETING COMPOUNDS FOR DIAGNOSIS AND THERAPY” (PROVINCIAL HEALTH SERVICES AUTHORITY, priority 2019, published 2022)", "experiment": "Biodistribution in Z138 tumor-bearing mice", "format": "in vivo", "details": "male, mouse, iv, total radioactivity", "experimental": "For Daudi, Z138, GRANTA519 and Jeko1 xenografts, male NOD.Cg-Rag1^tm1MomII2rg^tm1Wjl/SzJ (NRG) mice were subcutaneously inoculated on the left flank with 5×10^6 cells (100 μL; 1:1 ratio of PBS/Matrigel) and tumors were grown to a size of 200-500 mm^3. For PC-3 xenografts, male NOD.Cg-Rag1^tm1MomII2rg^tm1Wjl/SzJ (NRG) mice were subcutaneously inoculated on the left flank with 5×10^6 PC-3 cells (100 μL; 1:1 ratio of PBS/Matrigel) and tumors were grown to a size of 200-400 mm^3.\nThe mice were euthanized via CO2 inhalation while anesthetized with isoflurane. Tissues were harvested, washed in PBS, blotted dry, weighed, and measured on a Hidex AMG Automatic Gamma Counter.", "key": {"[1]": {"details": "NOD.Cg-Rag1^tm1MomII2rg^tm1Wjl/SzJ (NRG), blood, read-out: Biodistribution Blood"}, "[2]": {"details": "NOD.Cg-Rag1^tm1MomII2rg^tm1Wjl/SzJ (NRG), bone, read-out: Biodistribution Bone"}, "[3]": {"details": "NOD.Cg-Rag1^tm1MomII2rg^tm1Wjl/SzJ (NRG), brain, read-out: Biodistribution Brain"}, "[4]": {"details": "NOD.Cg-Rag1^tm1MomII2rg^tm1Wjl/SzJ (NRG), fat, read-out: Biodistribution Fat"}, "[5]": {"details": "NOD.Cg-Rag1^tm1MomII2rg^tm1Wjl/SzJ (NRG), intestine, read-out: Biodistribution Intestine"}, "[6]": {"details": "NOD.Cg-Rag1^tm1MomII2rg^tm1Wjl/SzJ (NRG), stomach, read-out: Biodistribution Stomach"}, "[7]": {"details": "NOD.Cg-Rag1^tm1MomII2rg^tm1Wjl/SzJ (NRG), testes, read-out: Biodistribution Testes"}, "[8]": {"details": "NOD.Cg-Rag1^tm1MomII2rg^tm1Wjl/SzJ (NRG), tumour (Z138 xenograft), read-out: Biodistribution Z138 (tumour)"}, "[9]": {"details": "NOD.Cg-Rag1tm1Mom Il2rgtm1Wjl/SzJ (NRG), adrenals, read-out: Biodistribution Adrenals"}, "[10]": {"details": "NOD.Cg-Rag1tm1Mom Il2rgtm1Wjl/SzJ (NRG), heart, read-out: Biodistribution Heart"}, "[11]": {"details": "NOD.Cg-Rag1tm1Mom Il2rgtm1Wjl/SzJ (NRG), kidney, read-out: Biodistribution Kidney"}}, "note": "Like-named read-outs stand apart in the source and are kept apart here. Positions of bridges follow the written chain, without caps; N, C: chain ends. Non-standard residues stand in square brackets, D forms with d. Residues, ends and D or L forms follow the SMILES beside them. Groups on a side chain read outwards from the residue. *: point of attachment. DOTA = O=C(O)CN1CCN(CC(=O)O)CCN(CC(=O)*)CCN(CC(=O)O)CC1; 2Nal = N[C@@H](Cc1ccc2ccccc2c1)C(=O)O; Lys(iPr) = CC(C)NCCCC[C@H](N)C(=O)O"}
{"smiles": "CC(C)NCCCC[C@@H]1NC(=O)[C@H](Cc2ccc(O)cc2)NC(=O)[C@H](Cc2ccccc2)NC(=O)CC[C@H](C(=O)N[C@@H](CCCCNC(C)C)C(=O)N[C@@H](CCCCNC(=O)[C@H](CCC(=O)O)NC(=O)[C@H](CCC(=O)O)NC(=O)[C@H](CCC(=O)O)NC(=O)CN2CCN(CC(=O)O)CCN(CC(=O)O)CCN(CC(=O)O)CC2)C(N)=O)NC(=O)CNC(=O)[C@H](Cc2ccc3ccccc3c2)NC(=O)[C@@H](CCCNC(=N)N)NC1=O", "note": "[[^177Lu]Lu-BL02, metal not drawn] (FY[Lys(iPr)][dR][2Nal]G[dE][Lys(iPr)]K([Glu-Glu-Glu-DOTA])-NH2; lactam N-7)", "values": [{"measurement": "tissue uptake at 1 h", "setting": "NOD.Cg-Rag1^tm1MomII2rg^tm1Wjl/SzJ (NRG), blood, 1 h, read-out: Biodistribution Blood", "value": 0.44, "unit": "%ID/g"}, {"measurement": "tissue uptake at 4 h", "setting": "[1]", "value": 0.03, "unit": "%ID/g"}, {"measurement": "tissue uptake at 24 h", "setting": "[1]", "value": 0.01, "unit": "%ID/g"}, {"measurement": "tissue uptake at 72 h", "setting": "[1]", "value": 0.007, "unit": "%ID/g"}, {"measurement": "tissue uptake at 1 h", "setting": "NOD.Cg-Rag1^tm1MomII2rg^tm1Wjl/SzJ (NRG), blood, with LY2510924 7.5 μg i.p. 15 min before radiotracer, 1 h blocked, read-out: Biodistribution Blood", "value": 2.06, "unit": "%ID/g"}, {"measurement": "tissue uptake at 1 h", "setting": "NOD.Cg-Rag1^tm1MomII2rg^tm1Wjl/SzJ (NRG), bone, 1 h, read-out: Biodistribution Bone", "value": 0.25, "unit": "%ID/g"}, {"measurement": "tissue uptake at 4 h", "setting": "[2]", "value": 0.11, "unit": "%ID/g"}, {"measurement": "tissue uptake at 24 h", "setting": "[2]", "value": 0.085, "unit": "%ID/g"}, {"measurement": "tissue uptake at 72 h", "setting": "[2]", "value": 0.053, "unit": "%ID/g"}, {"measurement": "tissue uptake at 1 h", "setting": "NOD.Cg-Rag1^tm1MomII2rg^tm1Wjl/SzJ (NRG), bone, 1 h blocked, read-out: Biodistribution Bone", "value": 0.49, "unit": "%ID/g"}, {"measurement": "tissue uptake at 1 h", "setting": "NOD.Cg-Rag1^tm1MomII2rg^tm1Wjl/SzJ (NRG), brain, 1 h, read-out: Biodistribution Brain", "value": 0.02, "unit": "%ID/g"}, {"measurement": "tissue uptake at 1 h", "setting": "NOD.Cg-Rag1^tm1MomII2rg^tm1Wjl/SzJ (NRG), brain, 1 h blocked, read-out: Biodistribution Brain", "value": 0.04, "unit": "%ID/g"}, {"measurement": "tissue uptake at 4 h", "setting": "[3]", "value": 0.01, "unit": "%ID/g"}, {"measurement": "tissue uptake at 24 h", "setting": "[3]", "value": 0.003, "unit": "%ID/g"}, {"measurement": "tissue uptake at 72 h", "setting": "[3]", "value": 0.001, "unit": "%ID/g"}, {"measurement": "tissue uptake at 1 h", "setting": "NOD.Cg-Rag1^tm1MomII2rg^tm1Wjl/SzJ (NRG), fat, 1 h, read-out: Biodistribution Fat", "value": 0.07, "unit": "%ID/g"}, {"measurement": "tissue uptake at 4 h", "setting": "[4]", "value": 0.03, "unit": "%ID/g"}, {"measurement": "tissue uptake at 24 h", "setting": "[4]", "value": 0.011, "unit": "%ID/g"}, {"measurement": "tissue uptake at 72 h", "setting": "[4]", "value": 0.008, "unit": "%ID/g"}, {"measurement": "tissue uptake at 1 h", "setting": "NOD.Cg-Rag1^tm1MomII2rg^tm1Wjl/SzJ (NRG), fat, with LY2510924 7.5 μg i.p. 15 min before radiotracer, 1 h blocked, read-out: Biodistribution Fat", "value": 0.19, "unit": "%ID/g"}, {"measurement": "tissue uptake at 1 h", "setting": "NOD.Cg-Rag1^tm1MomII2rg^tm1Wjl/SzJ (NRG), intestine, 1 h, read-out: Biodistribution Intestine", "value": 0.27, "unit": "%ID/g"}, {"measurement": "tissue uptake at 1 h", "setting": "NOD.Cg-Rag1^tm1MomII2rg^tm1Wjl/SzJ (NRG), intestine, 1 h blocked, read-out: Biodistribution Intestine", "value": 0.75, "unit": "%ID/g"}, {"measurement": "tissue uptake at 4 h", "setting": "[5]", "value": 0.09, "unit": "%ID/g"}, {"measurement": "tissue uptake at 24 h", "setting": "[5]", "value": 0.126, "unit": "%ID/g"}, {"measurement": "tissue uptake at 72 h", "setting": "[5]", "value": 0.023, "unit": "%ID/g"}, {"measurement": "tissue uptake at 1 h", "setting": "NOD.Cg-Rag1^tm1MomII2rg^tm1Wjl/SzJ (NRG), stomach, 1 h, read-out: Biodistribution Stomach", "value": 0.12, "unit": "%ID/g"}, {"measurement": "tissue uptake at 1 h", "setting": "NOD.Cg-Rag1^tm1MomII2rg^tm1Wjl/SzJ (NRG), stomach, 1 h blocked, read-out: Biodistribution Stomach", "value": 0.2, "unit": "%ID/g"}, {"measurement": "tissue uptake at 4 h", "setting": "[6]", "value": 0.07, "unit": "%ID/g"}, {"measurement": "tissue uptake at 24 h", "setting": "[6]", "value": 0.052, "unit": "%ID/g"}, {"measurement": "tissue uptake at 72 h", "setting": "[6]", "value": 0.022, "unit": "%ID/g"}, {"measurement": "tissue uptake at 1 h", "setting": "NOD.Cg-Rag1^tm1MomII2rg^tm1Wjl/SzJ (NRG), testes, 1 h, read-out: Biodistribution Testes", "value": 0.18, "unit": "%ID/g"}, {"measurement": "tissue uptake at 4 h", "setting": "[7]", "value": 0.04, "unit": "%ID/g"}, {"measurement": "tissue uptake at 24 h", "setting": "[7]", "value": 0.032, "unit": "%ID/g"}, {"measurement": "tissue uptake at 72 h", "setting": "[7]", "value": 0.029, "unit": "%ID/g"}, {"measurement": "tissue uptake at 1 h", "setting": "NOD.Cg-Rag1^tm1MomII2rg^tm1Wjl/SzJ (NRG), testes, with LY2510924 7.5 μg i.p. 15 min before radiotracer, 1 h blocked, read-out: Biodistribution Testes", "value": 0.39, "unit": "%ID/g"}, {"measurement": "tissue uptake at 1 h", "setting": "NOD.Cg-Rag1^tm1MomII2rg^tm1Wjl/SzJ (NRG), tumour (Z138 xenograft), 1 h, read-out: Biodistribution Z138 (tumour)", "value": 17.2, "unit": "%ID/g"}, {"measurement": "tissue uptake at 1 h", "setting": "NOD.Cg-Rag1^tm1MomII2rg^tm1Wjl/SzJ (NRG), tumour (Z138 xenograft), 1 h blocked, read-out: Biodistribution Z138 (tumour)", "value": 3.75, "unit": "%ID/g"}, {"measurement": "tissue uptake at 4 h", "setting": "[8]", "value": 15.6, "unit": "%ID/g"}, {"measurement": "tissue uptake at 24 h", "setting": "[8]", "value": 8.79, "unit": "%ID/g"}, {"measurement": "tissue uptake at 72 h", "setting": "[8]", "value": 3.57, "unit": "%ID/g"}, {"measurement": "tissue uptake at 1 h", "setting": "NOD.Cg-Rag1tm1Mom Il2rgtm1Wjl/SzJ (NRG), adrenals, 1 h, read-out: Biodistribution Adrenals", "value": 0.46, "unit": "%ID/g"}, {"measurement": "tissue uptake at 1 h", "setting": "NOD.Cg-Rag1tm1Mom Il2rgtm1Wjl/SzJ (NRG), adrenals, 1 h blocked, read-out: Biodistribution Adrenals", "value": 0.47, "unit": "%ID/g"}, {"measurement": "tissue uptake at 4 h", "setting": "[9]", "value": 0.13, "unit": "%ID/g"}, {"measurement": "tissue uptake at 24 h", "setting": "[9]", "value": 0.117, "unit": "%ID/g"}, {"measurement": "tissue uptake at 72 h", "setting": "[9]", "value": 0.073, "unit": "%ID/g"}, {"measurement": "tissue uptake at 1 h", "setting": "NOD.Cg-Rag1tm1Mom Il2rgtm1Wjl/SzJ (NRG), heart, 1 h, read-out: Biodistribution Heart", "value": 0.18, "unit": "%ID/g"}, {"measurement": "tissue uptake at 1 h", "setting": "NOD.Cg-Rag1tm1Mom Il2rgtm1Wjl/SzJ (NRG), heart, 1 h blocked, read-out: Biodistribution Heart", "value": 0.46, "unit": "%ID/g"}, {"measurement": "tissue uptake at 4 h", "setting": "[10]", "value": 0.05, "unit": "%ID/g"}, {"measurement": "tissue uptake at 24 h", "setting": "[10]", "value": 0.035, "unit": "%ID/g"}, {"measurement": "tissue uptake at 72 h", "setting": "[10]", "value": 0.022, "unit": "%ID/g"}, {"measurement": "tissue uptake at 1 h", "setting": "NOD.Cg-Rag1tm1Mom Il2rgtm1Wjl/SzJ (NRG), kidney, 1 h, read-out: Biodistribution Kidney", "value": 3.87, "unit": "%ID/g"}, {"measurement": "tissue uptake at 1 h", "setting": "NOD.Cg-Rag1tm1Mom Il2rgtm1Wjl/SzJ (NRG), kidney, 1 h blocked, read-out: Biodistribution Kidney", "value": 10.9, "unit": "%ID/g"}, {"measurement": "tissue uptake at 4 h", "setting": "[11]", "value": 3.27, "unit": "%ID/g"}, {"measurement": "tissue uptake at 24 h", "setting": "[11]", "value": 1.43, "unit": "%ID/g"}, {"measurement": "tissue uptake at 72 h", "setting": "[11]", "value": 0.56, "unit": "%ID/g"}]}
